In the assay the test system is T1, trypsin from crevalle jack (Caranx hippos) pyloric caeca.
T1 construct: gene trypsin-like enzyme; native, purified from pyloric caeca (heat, ammonium sulfate, Sephadex G-75); mature N-terminus IVGGFECTPHVFAYQ
Put plainly: p-nitroaniline release at […] nm, Michaelis-Menten fit. In kind it is biochemical. Conditions: 0.1 M Tris-HCl pH 8.0; 0.02-2.4 mM BApNA.

Broadly, the Km is the concentration of substrate that gives half-maximal velocity. Take `NC(N)=NCCCC(NC(=O)c1ccccc1)C(=O)Nc1ccc([N+](=O)[O-])cc1` (racemic) [BApNA, N-α-benzoyl-DL-arginine-p-nitroanilide]: the Km was 689 ± 50 µM.

Values taken from publication PMC3817308, “Metal-sensitive and thermostable trypsin from the crevalle jack (Caranx hippos) pyloric caeca: purification and characterization” (Chemistry Central Journal, 2013).
